This is an account of results in patent US20200064357A1, “METHODS FOR DETERMINING AND MONITORING GASTROINTESTINAL INFLAMMATION” (Protagonist Therapeutics, Inc., priority 2016, published 2020).

For test [1], the system named is Sprague-Dawley rats. Briefly: Biomarkers in colon of TNBS-induced acute colitis rats (Example E1). The format is in vivo, rat. An excerpt: The effect of treatment with peptide inhibitors of IL23R on inflammatory markers associated with IL23 signaling was examined in a rat model of acute colitis. Acute colitis was induced in Sprague-Dawley rats by a single intra-rectal instillation of 2,4,6-Trinitrobenzenesulfonic acid (TNBS) followed by efficacy analysis at day seven. Pharmacodynamic (PD) biomarkers were examined using enzyme-linked immunosorbent assay (ELISA), quantitative reverse transcription polymerase chain reaction, or immunohistochemistry analysis of colon, feces, or serum samples obtained from colitic rats treated with Peptide 993, Peptide 1185, or Peptide 980.
Acute colitis was induced by providing 7-week-old female Sprague-Dawley rats with various dosages of 64 mg/kg or 48 mg/kg of TNBS in 50% ethanol (TNBS/ethanol) administered intrarectally at Day 0. Peptide inhibitors were administered orally two or three times a day at various dosages and were provided in drinking water at various dosages, for 8 days starting approximately 24 hours (Day −1) prior TNBS inoculation.
Levels of a number of inflammatory biomarkers were examined in the colons. The distal colon tissue samples, designated for protein expression analysis, were flash frozen after collection. For protein extraction, the samples were thawed, weighed and homogenized in the extraction buffer (PBS pH 7.2 supplemented with Protease Inhibitors, 3× volume:weight). The homogenates were centrifuged at 13 krpm at 4° C. for 15 minutes, a total of two times to remove the debris. The supernatants were saved in multiple aliquots in −80° C. and subsequently used for protein expression analysis on ELISA. The total protein in each sample was quantified using BCA assay. MPO, IL-10, IL-6, IL-17A and IL-22 biomarker protein expression in the distal colon samples was analyzed using commercially available rat ELISA kits.

Test [2] concerns Sprague-Dawley rats. Briefly: Disease pathology in TNBS-induced rat colitis: colon weight/length, colonic score, histology (Example E4). The class given is in vivo. As for the experimental part:
(§1) In the first model, acute colitis was induced in Sprague-Dawley rats by a single intra-rectal instillation of TNBS followed by efficacy analysis at day seven. The animals were grouped into sham+vehicle (PO TID), TNBS+vehicle (PO TID), anti-IL23p19 antibody (4 mg/kg/day IP, Day −1 and Day 3), and Peptide 993 treatment at 9, 28, or 61 mg/kg/day (PO TID+in drinking water). Sham indicates animals not treated with TNBS.
Following treatment, weight and length were determined from entire colon; colonic score was evaluated as sum of adhesion (0-2), stricture (0-3), ulcer (0-5), and colon wall thickness (0-2); histology was evaluated by a pathologist as sum of mucosal/submucosal inflammation (0-5), transmural inflammation (0-5), erosion (0-5), and gland loss (0-5). Values shown as mean±SD (FIGS. 9A-9C). Statistical significance was assessed by One-way ANOVA with post-hoc Dunnett's vs. Vehicle control: **p≤0.01; ***p≤0.001; ****p≤0.0001; ns, not significant.

For test [3], the system named is Sprague-Dawley rats. Briefly: Distal colon markers in TNBS-induced rat colitis: MPO, IL-17A, IL-22 by ELISA, pStat3 by IHC (Example E4). The format is in vivo. As for the experimental part:
as §1
In addition, myeloperoxidase (MPO), IL-17A, and IL-22 detected from sampled tissue were quantified by enzyme-linked immunosorbent assay (ELISA), and the results are shown in FIGS. 10A-10C. The percentage of phosphorylated Signal Transducer and Activator of Transcription 3 (Stat3) was normalized to the area of the distal colon quantified by immuno-histochemistry (IHC) (FIG. 10D), and the micrographs shown in FIG. 10E are representative images from each indicated group for IHC analysis of pStat3 expression. Values shown as mean±SD. Statistical significance was assessed by One-way ANOVA with post-hoc Dunnett's vs. Vehicle control: *p≤0.05; **p≤0.01; ***p≤0.001; ****p≤0.0001; ns, not significant.
For the pSTAT3 assays, colon tissue samples were processed routinely, sectioned at approximately 3-5 microns, fixed in 10% neutral buffered formaldehyde, processed in paraffin, and immunolabeled with an anti-pSTAT3 primary antibody that binds STAT3 phosphorylated at Tyrosine 705 (Abcam, Cat. No. ab76315 PUR). pSTAT3 immunolabel as a percentage of total areas was measured using Visiopharm© image analysis software. Image analysis involved outlining the colon tissue as a region of interest (ROI), then an automated thresholding method was utilized for the classification of the pSTAT3 positive immunolabel. After classification, the total tissue area within the ROI was calculated, along with the count of pSTAT3 positive cells and the area (in microns) of the pSTAT3 positive cells. Lastly, the pSTAT3 immunolabel percentage of the total tissue area was calculated.
The details of the pSTAT3 Image Analysis Protocol were as follows:
1. ROI • a. Tissue was outlined, and non-colon tissues were excluded.
2. Pre-processing • a. Image was converted into grayscale-pixel values processed to be 0-255 • b. Grayscale image was filtered into two channels: • i. The DAB (or pSTAT3 positive) channel with pixels associated with the brown DAB staining; and • ii. The hematoxylin channel with pixels associated with the tissue area not stained with DAB (includes all tissue area and background staining).
3. Analysis & Classification • a. Algorithm using a “threshold” method was used to classify the tissue area within the ROI. • i. Threshold of the DAB channel was set to classify the positive pSTAT3 stained cells as any/all pixels (from the DAB channel of the pre-processed image) with values between 0-135. A green label was applied to these positively classified cells. • 1. Pixels with values outside the threshold of 0-135 were considered to be part of the tissue area (within the ROI). • b. […]
4. […] The total tissue area (within the ROI) was calculated-unit was in microns. • b. The total pSTAT3 positive area was calculated-unit is in microns. • c. The “count” of pSTAT3 positive cells was calculated. • d. The fraction of pSTAT3 positive cells was calculated by dividing the pSTAT3 positive area by the total tissue area-unit was in microns. • e. The nuclear density per square millimeter was calculated, simply to change the units from microns to square millimeter.
A general note: In an ELISA, binding on a coated surface is turned into a signal by an enzyme label.

Test [4] has as its system Sprague-Dawley rats. Briefly: CLDN8 gene expression and colonic score in TNBS-induced rat colitis (Example E5). The class given is in vivo. How it is done: The claudin family of proteins are components of the tight junction complex. Through expression analysis and colonic scoring, claudins were analyzed as biomarkers for IBD disease severity. […] CLDN8 gene expression was analyzed in a TNBS-induced rat model of […] following the protocols described in Example E1.

Setting [5] is: protein by ELISA, vs vehicle treated controls, Peptide 993 65 mg/kg/day.
Where [6] appears, read: protein by ELISA, vs vehicle treated controls, Peptide 993 65 mg/kg/day, Peptide 980 37 mg/kg/day.
Where [7] appears, read: TNBS rats, day seven, 9, 28 or 61 mg/kg/day PO TID + in drinking water, vs vehicle.
The mark [8] stands for this setting: acute TNBS-induced rat colitis model, oral treatment.
Where [9] appears, read: TNBS rats, oral treatment, ELISA.

The structures appear in SMILES notation.

For the molecule `CC(=O)NC(CCCNC(=N)N)C(=O)NC1CCSCC(C(=O)NC(Cc2ccc(OCCN)cc2)C(=O)NC(Cc2ccc3ccccc3c2)C(=O)NC2(C(=O)NC(CCC(=O)O)C(=O)NC(CC(N)=O)C(=O)NC(CC(N)=O)C(N)=O)CCOCC2)NC(=O)C(CCC(N)=O)NC(=O)C(Cc2c[nH]c3ccccc23)NC(=O)C(C(C)O)NC(=O)C(CCC(N)=O)NC1=O` (stereo not drawn) [Peptide 993, Ac-[(D)-Arg]-cyclo[[Abu]-QTWQC]-[Phe[4-(2-aminoethoxy)]]-[2-Nal]-[4-amino-4-carboxy-tetrahydropyran]-ENN-NH2], the “IL-1β gene expression level, distal colon” value with Sprague-Dawley rats [1] (data not shown, trend similar to the protein reduction) was “but not IL-1β”. In the test on Sprague-Dawley rats [1] (setting [5]), the “IL-1β level in colon” value is on record as “reduced”, the “IL-6 level in colon” value is “reduced” and the “IL-17A level in colon” value is reported as “reduced”. Also, in the test on Sprague-Dawley rats [1] (setting [6]), the “IL-22 level in colon” value was “reduced” and the “MPO level in colon” value was “reduced”. Besides, in the test on Sprague-Dawley rats [2] (setting [7]), the colon weight-to-length ratio result was “significant and dose-dependent reduction”; the “histopathological changes in the colon” value is “normalization”; the “macroscopic changes in the colon (colonic score)” value is “normalization”. In the test with Sprague-Dawley rats [2] (setting [8]), the “activity compared with neutralizing anti-IL-23p19 monoclonal antibody (4 mg/kg/day IP)” value was “comparable”; the disease parameters entry is “significant and dose-dependent attenuation”. In addition, the “disease-related and IL-23-directed markers in the distal colons (MPO, IL-17A, IL-22, pStat3)” value with Sprague-Dawley rats [3] (TNBS rats, 9, 28 or 61 mg/kg/day oral, vs vehicle) is “significant and dose-dependent reduction”. In the test on Sprague-Dawley rats [3] (setting [9]), the “colonic levels of MPO” value was “decreased”; the “levels of IL-17A, distal colon” value was “significantly reduced”; the “levels of IL-22, distal colon” value is on record as “significantly reduced”. In addition, in the test with Sprague-Dawley rats [3] (TNBS rats, oral treatment, IHC, percentage of area), the “levels of pStat3, distal colon” value is reported as “restored to control levels”. Also, the “levels of CLDN8 expression, distal colon” value with Sprague-Dawley rats [4] (vs vehicle control-treated) is on record as “restored levels of CLDN8 expression above vehicle control-treated subjects”. Moreover, the “colonic score (0-12)” value with Sprague-Dawley rats [4] (vs vehicle treated animals) is “reduced”.
